The values below come from ChEMBL document CHEMBL1201862, “PubChem BioAssay data set” (2004).

Test systems include EKVX; SK-MEL-2; TK-10; HCT-15; A549; HOP-62; IGROV-1; U-251; Hs-578T; KM12; OVCAR-5; OVCAR-4; MDA-MB-435; 786-0; Malme-3M; SK-MEL-5; NCI-H460; HL-60; RXF 393; HOP-92.
Assay in all cases: NCI anticancer screen, dose series, 48 h

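Where inhibition never reached the appropriate level, the endpoint shown equals the highest concentration tested. Otherwise, values were interpolated linearly from a five-concentration, 48-hour dose response in 96-well plates. At the GI50, growth is halved.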 Activity calls are given as the source filed them. Cut-off read from the data, not from the text of the source: active = GI50 up to about 1.1 µM and inactive = higher. A value given as a limit tells only on which side of the number the result lay.

Consider `Cc1ncc([N+](=O)[O-])n1CCNC(=O)CCn1ccnc1[N+](=O)[O-]`, for which the GI50 is > 100 µM (inactive) in the assay with EKVX; > 100 µM (inactive) in the assay on SK-MEL-2; > 100 µM (inactive) in the assay on TK-10; greater than 100 µM with HCT-15; > 100 µM (inactive) in the assay with A549; > 100 µM (inactive) in the assay with HOP-62. For the same compound, the GI50 with IGROV-1 is > 100 µM (inactive); with U-251 it was > 100 µM (inactive); in the assay on Hs-578T, 66.8 µM (inactive); in the assay on KM12 it was > 100 µM (inactive); in the assay on OVCAR-5, > 100 µM (inactive); in the assay with OVCAR-4 it was > 100 µM (inactive). Besides, the GI50 in the assay on MDA-MB-435, in the assay with 786-0, with Malme-3M, in the assay with SK-MEL-5, in the assay with NCI-H460 and with HL-60 was > 100 µM (inactive) in each case.
In the case of `CC(C)CCc1c(Cl)nc(Cl)nc1Cl`, the GI50 was 26.2 µM (inactive) in the assay on EKVX; 16 µM (inactive) in the assay on SK-MEL-2; 21.1 µM (inactive) in the assay with TK-10; 3.47 µM with HCT-15; 21.7 µM (inactive) in the assay on A549; 16.4 µM (inactive) in the assay on HOP-62. Besides, the GI50 is 18 µM (inactive) in the assay on IGROV-1; 11.8 µM (inactive) in the assay with U-251; 3.89 µM (inactive) in the assay with RXF 393; 17.9 µM (inactive) in the assay with Hs-578T; > 10 µM (inactive) with KM12; 28.1 µM (inactive) in the assay on OVCAR-5. Moreover, the GI50 in the assay with OVCAR-4 is 19.7 µM (inactive); with MDA-MB-435, 6.18 µM (inactive); in the assay with 786-0 it was 20.3 µM (inactive); in the assay on Malme-3M it was 6.12 µM (inactive); in the assay on SK-MEL-5 it was 4.07 µM (inactive); in the assay with NCI-H460 it was 15.5 µM (inactive). Moreover, the GI50 in the assay with HL-60 is > 100 µM (inactive).
Take `CC1(C)Cc2ccccc2C(C)(Cl)C(=O)N1` (stereo unspecified): the GI50 is > 10 µM (inactive) in the assay with EKVX; > 10 µM (inactive) with TK-10; greater than 10 µM with HCT-15; > 10 µM (inactive) in the assay on A549; > 10 µM (inactive) with HOP-62; > 10 µM (inactive) in the assay with IGROV-1. Further, the GI50 in the assay with U-251, in the assay on RXF 393, in the assay on HOP-92, in the assay with KM12, with OVCAR-5 and in the assay on OVCAR-4 was > 10 µM (inactive) in each case. The GI50 in the assay on MDA-MB-435, in the assay on 786-0, in the assay on Malme-3M, with NCI-H460 and in the assay on HL-60 was > 10 µM (inactive) throughout.
Consider `Cc1nn(C(=O)Cc2ccccc2)c2c1C(c1ccc(N(C)C)cc1)SC(=N)N2` (stereo unspecified), for which the GI50 with EKVX was > 100 µM (inactive); in the assay on TK-10 it was 76.6 µM (inactive); in the assay on HCT-15, greater than 100 µM; with A549, > 100 µM (inactive); in the assay on HOP-62 it was 38.3 µM (inactive); in the assay on IGROV-1, > 100 µM (inactive). Besides, the GI50 was 24.5 µM (inactive) in the assay with Hs-578T; > 100 µM (inactive) in the assay on KM12; > 100 µM (inactive) in the assay on MDA-MB-435; > 100 µM (inactive) in the assay with 786-0; > 100 µM (inactive) with Malme-3M; > 100 µM (inactive) in the assay on SK-MEL-5. For the same compound, the GI50 with NCI-H460 and with HL-60 was > 100 µM (inactive) throughout.
Regarding `CCOC(=O)/C(=C/Nc1c(C)n(C)n(-c2ccccc2)c1=O)C(C)=O`, the GI50 is > 100 µM (inactive) with EKVX; > 100 µM (inactive) with SK-MEL-2; > 100 µM (inactive) with TK-10; greater than 100 µM in the assay on HCT-15; > 100 µM (inactive) in the assay with A549; > 100 µM (inactive) with IGROV-1. The GI50 in the assay on U-251, in the assay with RXF 393, in the assay with HOP-92, in the assay on KM12, with OVCAR-5 and in the assay with OVCAR-4 was > 100 µM (inactive) each time. The GI50 in the assay with MDA-MB-435, in the assay with 786-0, in the assay with Malme-3M, with SK-MEL-5 and in the assay on HL-60 was > 100 µM (inactive) each time.
On to `CCc1nc2ccc(/N=N/N(C)C)cc2[nH]1`, for which the GI50 was > 100 µM (inactive) in the assay on EKVX; > 100 µM (inactive) in the assay with SK-MEL-2; > 100 µM (inactive) in the assay on TK-10; greater than 100 µM in the assay on HCT-15; > 100 µM (inactive) in the assay with A549; > 100 µM (inactive) with HOP-62. Also, the GI50 in the assay on IGROV-1 is > 100 µM (inactive); in the assay on U-251 it was > 100 µM (inactive); in the assay on RXF 393, 45.3 µM (inactive); in the assay on Hs-578T, > 100 µM (inactive); with KM12, > 100 µM (inactive); in the assay on OVCAR-5, > 100 µM (inactive). The GI50 in the assay with OVCAR-4, in the assay on MDA-MB-435, in the assay on 786-0, in the assay with Malme-3M, with SK-MEL-5 and in the assay on NCI-H460 was > 100 µM (inactive) each time.
On to `CC(=O)N(O)c1ccc(-c2nc3ccccc3s2)cc1`, for which the GI50 was 66.7 µM (inactive) in the assay on SK-MEL-2; 80.7 µM (inactive) in the assay on TK-10; greater than 100 µM in the assay on HCT-15; 42.6 µM (inactive) with A549; 42.1 µM (inactive) in the assay with HOP-62; 32.9 µM (inactive) in the assay with IGROV-1. Also, the GI50 with U-251 is 87.9 µM (inactive); in the assay on RXF 393, 61.8 µM (inactive); in the assay with Hs-578T, 32.7 µM (inactive); with HOP-92, 64.4 µM (inactive); with KM12, 38.2 µM (inactive); with OVCAR-5, > 100 µM (inactive). For the same compound, the GI50 in the assay with OVCAR-4 was 28.2 µM (inactive); with MDA-MB-435 it was 86.9 µM (inactive); in the assay on 786-0, 55.1 µM (inactive); in the assay on Malme-3M it was 31.3 µM (inactive); with SK-MEL-5, 39.2 µM (inactive); in the assay on NCI-H460 it was 46.9 µM (inactive).
As for `CN(N)/N=N/c1[nH]cnc1[N+](=O)[O-]`, the GI50 with EKVX was 94.8 µM (inactive); with SK-MEL-2, > 100 µM (inactive); with TK-10, > 100 µM (inactive); in the assay on HCT-15 it was greater than 100 µM; with A549, > 100 µM (inactive); in the assay with HOP-62 it was > 100 µM (inactive). Also, the GI50 in the assay with IGROV-1, in the assay with U-251, in the assay with RXF 393, in the assay on Hs-578T, with KM12 and in the assay on OVCAR-5 was > 100 µM (inactive) each time. The GI50 in the assay on OVCAR-4 is 56.1 µM (inactive); with MDA-MB-435 it was > 100 µM (inactive); with 786-0, 18.7 µM (inactive); in the assay on Malme-3M, > 100 µM (inactive); with SK-MEL-5, > 100 µM (inactive); in the assay with NCI-H460, > 100 µM (inactive). Also, the GI50 in the assay on HL-60 is 2.99 µM (inactive).
In the case of `CN/N=C(/C=C/c1ccccc1)C(C)C`, the GI50 was > 100 µM (inactive) with EKVX; > 100 µM (inactive) in the assay with SK-MEL-2; > 100 µM (inactive) in the assay with TK-10; greater than 100 µM in the assay with HCT-15; > 100 µM (inactive) in the assay with A549; > 100 µM (inactive) in the assay on HOP-62. The GI50 with IGROV-1, in the assay with U-251, with RXF 393, in the assay on Hs-578T, in the assay on KM12 and in the assay with OVCAR-5 was > 100 µM (inactive) each time. Further, the GI50 is > 100 µM (inactive) in the assay on OVCAR-4; > 100 µM (inactive) with MDA-MB-435; > 100 µM (inactive) in the assay on 786-0; > 100 µM (inactive) in the assay on Malme-3M; > 100 µM (inactive) in the assay on SK-MEL-5; > 10 µM (inactive) in the assay on NCI-H460. Moreover, in the assay on HL-60, the GI50 is > 100 µM (inactive).
Consider `C=C(C)[C@@H]1CCC2=C[C@H](OC2=O)[C@@]2(C)C[C@@H]2C2=CC(C)=C(O2)[C@H]1O`, for which the GI50 with EKVX was 36.8 µM (inactive); with SK-MEL-2 it was 40.8 µM (inactive); in the assay with TK-10, 38.7 µM (inactive); in the assay on HCT-15 it was 36.4 µM; in the assay with A549, 39 µM (inactive); in the assay on HOP-62, > 75 µM (inactive). Besides, the GI50 with IGROV-1 was 21.3 µM (inactive); with U-251 it was > 75 µM (inactive); in the assay on RXF 393, 38.5 µM (inactive); in the assay with HOP-92, > 75 µM (inactive); in the assay with KM12 it was 25.5 µM (inactive); in the assay with OVCAR-5, > 75 µM (inactive). Besides, the GI50 in the assay on OVCAR-4 was 42.2 µM (inactive); in the assay with MDA-MB-435, 30.6 µM (inactive); with 786-0 it was 21.8 µM (inactive); in the assay on Malme-3M, 48.9 µM (inactive); with NCI-H460, 54.3 µM (inactive); in the assay with HL-60, 46.6 µM (inactive).
With `O=c1nc2n3c4c(cccc4nc-2c(=O)[nH]1)CCC3`, the GI50 was > 100 µM (inactive) with EKVX; > 100 µM (inactive) with SK-MEL-2; > 100 µM (inactive) with TK-10; greater than 100 µM in the assay with HCT-15; > 100 µM (inactive) in the assay with A549; > 100 µM (inactive) in the assay on HOP-62. The GI50 in the assay with IGROV-1 was > 100 µM (inactive); in the assay on U-251, > 100 µM (inactive); in the assay with RXF 393 it was > 100 µM (inactive); with Hs-578T, 28.2 µM (inactive); with KM12, 37.4 µM (inactive); with OVCAR-5 it was > 100 µM (inactive). Further, the GI50 with OVCAR-4 was 86.7 µM (inactive); in the assay with MDA-MB-435 it was 61.9 µM (inactive); in the assay with 786-0, > 100 µM (inactive); in the assay with Malme-3M, 21.6 µM (inactive); in the assay on SK-MEL-5, > 100 µM (inactive); with NCI-H460, > 100 µM (inactive). In addition, the GI50 in the assay on HL-60 was 70.8 µM (inactive).
